From patent US20240360082A1, “SUBSTITUTED PYRIDONE COMPOUNDS USEFUL TO TREAT ORTH[…]” (priority 2021, published 2024)

The molecules below were run against influenza A virus minigenome (PB2, PB1, PA, NP proteins) (UniProt P04665). Details: read-out: RNP_Hubei B.
Chain of influenza A virus minigenome (PB2, PB1, PA, NP proteins) (P04665 whole entry): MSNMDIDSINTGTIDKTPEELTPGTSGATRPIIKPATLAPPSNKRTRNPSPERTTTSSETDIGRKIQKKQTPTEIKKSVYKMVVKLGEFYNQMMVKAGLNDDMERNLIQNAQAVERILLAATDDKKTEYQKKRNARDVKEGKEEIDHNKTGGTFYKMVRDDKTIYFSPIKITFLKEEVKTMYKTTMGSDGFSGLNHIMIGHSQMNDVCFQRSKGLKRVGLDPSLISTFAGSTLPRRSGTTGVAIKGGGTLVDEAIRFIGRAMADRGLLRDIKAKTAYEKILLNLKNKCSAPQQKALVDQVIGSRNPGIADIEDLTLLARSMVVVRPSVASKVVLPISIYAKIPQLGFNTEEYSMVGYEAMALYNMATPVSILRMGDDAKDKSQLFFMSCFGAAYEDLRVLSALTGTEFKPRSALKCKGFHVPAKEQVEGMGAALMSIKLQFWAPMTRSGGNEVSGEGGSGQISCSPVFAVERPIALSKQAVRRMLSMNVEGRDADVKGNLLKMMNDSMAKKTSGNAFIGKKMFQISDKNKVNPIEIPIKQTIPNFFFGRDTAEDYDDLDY
Type: cell-based
`CCCNc1cccc(COc2ccc(-c3cc(C(N)=O)c(=O)[nH]c3C(F)(F)F)cc2)c1` [Example 66, 2-oxo-5-(4-((3-(propylamino)benzyl)oxy)phenyl)-6-(trifluoromethyl)-1,2-dihydropyridine-3-carboxamide] was tested, and the IC50 was 0.1 to 1 µM.
For `NC(=O)c1cc(-c2ccc(OCc3ccncc3)cc2)c(C(F)(F)F)[nH]c1=O` [Example 70, 2-oxo-5-(4-(pyridin-4-ylmethoxy)phenyl)-6-(trifluoromethyl)-1,2-dihydropyridine-3-carboxamide], the IC50 was 25 to 50 µM.
In the case of `NC(=O)c1cc(-c2ccc(OCc3ccc4nonc4c3)cc2)c(C(F)(F)F)[nH]c1=O` [Example 71, 5-(4-(benzo[c][1,2,5]oxadiazol-5-ylmethoxy)phenyl)-2-oxo-6-(trifluoromethyl)-1,2-dihydropyridine-3-carboxamide], the IC50 is reported as 25 to 50 µM.
In the case of `NC(=O)c1cc(-c2ccc(OCc3cccnc3)cc2)c(C(F)(F)F)[nH]c1=O` [Example 72, 2-oxo-5-(4-(pyridin-3-ylmethoxy)phenyl)-6-(trifluoromethyl)-1,2-dihydropyridine-3-carboxamide], the IC50 is reported as 25 to 50 µM.
`NC(=O)c1cc(-c2ccc(OCc3ccccn3)cc2)c(C(F)(F)F)[nH]c1=O` [Example 73, 2-oxo-5-(4-(pyridin-2-ylmethoxy)phenyl)-6-(trifluoromethyl)-1,2-dihydropyridine-3-carboxamide] was tested, and the IC50 was 25 to 50 µM.
In the case of `NC(=O)c1cc(-c2ccc(OCc3cccc4nonc34)cc2)c(C(F)(F)F)[nH]c1=O` [Example 74, 5-(4-(benzo[c][1,2,5]oxadiazol-4-ylmethoxy)phenyl)-2-oxo-6-(trifluoromethyl)-1,2-dihydropyridine-3-carboxamide], the IC50 is reported as 10 to 25 µM.
Work on `CS(=O)(=O)c1cccc(COc2ccc(-c3cc(C(N)=O)c(=O)[nH]c3C(F)(F)F)cc2)c1` [Example 75, 5-(4-((3-(methylsulfonyl)benzyl)oxy)phenyl)-2-oxo-6-(trifluoromethyl)-1,2-dihydropyridine-3-carboxamide] yielded an IC50 of 25 to 50 µM.
Work on `NC(=O)c1cc(-c2ccc(OCc3ccccc3[N+](=O)[O-])cc2)c(C(F)(F)F)[nH]c1=O` [Example 76, 5-(4-((2-nitrobenzyl)oxy)phenyl)-2-oxo-6-(trifluoromethyl)-1,2-dihydropyridine-3-carboxamide] yielded an IC50 of 10 to 25 µM.
`N#Cc1ccc(COc2ccc(-c3cc(C(N)=O)c(=O)[nH]c3C(F)(F)F)cc2)cc1` [Example 77, 5-(4-((4-cyanobenzyl)oxy)phenyl)-2-oxo-6-(trifluoromethyl)-1,2-dihydropyridine-3-carboxamide] was tested, and the IC50 was 10 to 25 µM.
`N#Cc1cccc(COc2ccc(-c3cc(C(N)=O)c(=O)[nH]c3C(F)(F)F)cc2)c1` [Example 78, 5-(4-((3-cyanobenzyl)oxy)phenyl)-2-oxo-6-(trifluoromethyl)-1,2-dihydropyridine-3-carboxamide] gave an IC50 of 25 to 50 µM.
Molecule `NC(=O)c1cc(-c2ccc(OCc3cccc(C(F)(F)F)c3)cc2)c(C(F)(F)F)[nH]c1=O` [Example 79, 2-oxo-6-(trifluoromethyl)-5-(4-((3-(trifluoromethyl)benzyl)oxy)phenyl)-1,2-dihydropyridine-3-carboxamide] has an IC50 of 5 to 10 µM.
Molecule `NC(=O)c1cc(-c2ccc(OCc3cncnc3)cc2)c(C(F)(F)F)[nH]c1=O` [Example 82, 2-oxo-5-(4-(pyrimidin-5-ylmethoxy)phenyl)-6-(trifluoromethyl)-1,2-dihydropyridine-3-carboxamide] has an IC50 of 25 to 50 µM.
For `CN1CCC(COc2ccc(-c3cc(C(N)=O)c(=O)[nH]c3C(F)(F)F)cc2)CC1` [Example 83, 5-(4-((1-methylpiperidin-4-yl)methoxy)phenyl)-2-oxo-6-(trifluoromethyl)-1,2-dihydropyridine-3-carboxamide], the IC50 was 25 to 50 µM.
`NC(=O)c1cc(-c2ccc(OCc3ccnnc3)cc2)c(C(F)(F)F)[nH]c1=O` [Example 84, 2-oxo-5-(4-(pyridazin-4-ylmethoxy)phenyl)-6-(trifluoromethyl)-1,2-dihydropyridine-3-carboxamide] gave an IC50 of 25 to 50 µM.
`NC(=O)c1cc(-c2ccc(OCc3ccc4cn[nH]c4c3)cc2)c(C(F)(F)F)[nH]c1=O` [Example 85, 5-(4-((1H-indazol-6-yl)methoxy)phenyl)-2-oxo-6-(trifluoromethyl)-1,2-dihydropyridine-3-carboxamide] gave an IC50 of 25 to 50 µM.
In the case of `NC(=O)c1cc(-c2ccc(OCc3ccc4cc[nH]c4c3)cc2)c(C(F)(F)F)[nH]c1=O` [Example 86, 5-(4-((1H-indol-6-yl)methoxy)phenyl)-2-oxo-6-(trifluoromethyl)-1,2-dihydropyridine-3-carboxamide], the IC50 is reported as 5 to 10 µM.
In the case of `NC(=O)c1cc(-c2ccc(OCc3ccc(C(F)(F)F)cc3)cc2)c(C(F)(F)F)[nH]c1=O` [Example 87, 2-oxo-6-(trifluoromethyl)-5-(4-((4-(trifluoromethyl)benzyl)oxy)phenyl)-1,2-dihydropyridine-3-carboxamide], the IC50 is reported as 1 to 5 µM.
`NC(=O)c1cc(-c2ccc(OCC3CNC(=O)C3)cc2)c(C(F)(F)F)[nH]c1=O` (stereo not drawn) [Example 88, 2-oxo-5-(4-((5-oxopyrrolidin-3-yl)methoxy)phenyl)-6-(trifluoromethyl)-1,2-dihydropyridine-3-carboxamide] showed an IC50 of 5 to 10 µM.
`N#Cc1ccccc1COc1ccc(-c2cc(C(N)=O)c(=O)[nH]c2C(F)(F)F)cc1` [Example 89, 5-(4-((2-cyanobenzyl)oxy)phenyl)-2-oxo-6-(trifluoromethyl)-1,2-dihydropyridine-3-carboxamide] was tested, and the IC50 was 25 to 50 µM.
`NC(=O)c1cc(-c2ccc(OCc3ccn4nnnc4c3)cc2)c(C(F)(F)F)[nH]c1=O` [Example 90, 2-oxo-5-(4-(tetrazolo[1,5-a]pyridin-7-ylmethoxy)phenyl)-6-(trifluoromethyl)-1,2-dihydropyridine-3-carboxamide] gave an IC50 of 25 to 50 µM.
`NC(=O)c1cc(-c2ccc(OCc3ccn4ccnc4c3)cc2)c(C(F)(F)F)[nH]c1=O` [Example 91, 5-(4-(imidazo[1,2-a]pyridin-7-ylmethoxy)phenyl)-2-oxo-6-(trifluoromethyl)-1,2-dihydropyridine-3-carboxamide] was tested, and the IC50 was 25 to 50 µM.
`CN1CCCC(COc2ccc(-c3cc(C(N)=O)c(=O)[nH]c3C(F)(F)F)cc2)C1` (stereo not drawn) [Example 92, 5-(4-((1-methylpiperidin-3-yl)methoxy)phenyl)-2-oxo-6-(trifluoromethyl)-1,2-dihydropyridine-3-carboxamide] showed an IC50 of 25 to 50 µM.
Molecule `NC(=O)c1cc(-c2ccc(OCc3ccc(F)c([N+](=O)[O-])c3)cc2)c(C(F)(F)F)[nH]c1=O` [Example 93, 5-(4-((4-fluoro-3-nitrobenzyl)oxy)phenyl)-2-oxo-6-(trifluoromethyl)-1,2-dihydropyridine-3-carboxamide] has an IC50 of 10 to 25 µM.
Work on `NC(=O)c1cc(-c2ccc(OCc3ccc4no[n+]([O-])c4c3)cc2)c(C(F)(F)F)[nH]c1=O` [Example 94] yielded an IC50 of 25 to 50 µM.
With `N#Cc1cncc(COc2ccc(-c3cc(C(N)=O)c(=O)[nH]c3C(F)(F)F)cc2)c1` [Example 99, 5-(4-((5-cyanopyridin-3-yl)methoxy)phenyl)-2-oxo-6-(trifluoromethyl)-1,2-dihydropyridine-3-carboxamide] the IC50 was 25 to 50 µM.
Work on `NC(=O)c1cc(-c2ccc(OCC3CCCOC3)cc2)c(C(F)(F)F)[nH]c1=O` (stereo not drawn) [Example 102, 2-oxo-5-(4-((tetrahydro-2H-pyran-3-yl)methoxy)phenyl)-6-(trifluoromethyl)-1,2-dihydropyridine-3-carboxamide] yielded an IC50 of 5 to 10 µM.
Molecule `Cc1noc(C)c1COc1ccc(-c2cc(C(N)=O)c(=O)[nH]c2C(F)(F)F)cc1` [Example 107, 5-(4-((3,5-dimethylisoxazol-4-yl)methoxy)phenyl)-2-oxo-6-(trifluoromethyl)-1,2-dihydropyridine-3-carboxamide] has an IC50 of 25 to 50 µM.
`Cn1cc(COc2ccc(-c3cc(C(N)=O)c(=O)[nH]c3C(F)(F)F)cc2)c(C(F)(F)F)n1` [Example 109, 5-(4-((1-methyl-3-(trifluoromethyl)-1H-pyrazol-4-yl)methoxy)phenyl)-2-oxo-6-(trifluoromethyl)-1,2-dihydropyridine-3-carboxamide] gave an IC50 of 25 to 50 µM.
`NC(=O)c1cc(-c2ccc(OCc3ccsc3)cc2)c(C(F)(F)F)[nH]c1=O` [Example 110, 2-oxo-5-(4-(thiophen-3-ylmethoxy)phenyl)-6-(trifluoromethyl)-1,2-dihydropyridine-3-carboxamide] showed an IC50 of 5 to 10 µM.
`Cn1nccc1COc1ccc(-c2cc(C(N)=O)c(=O)[nH]c2C(F)(F)F)cc1` [Example 126, 5-(4-((1-methyl-1H-pyrazol-5-yl)methoxy)phenyl)-2-oxo-6-(trifluoromethyl)-1,2-dihydropyridine-3-carboxamide] showed an IC50 of 25 to 50 µM.
Molecule `NC(=O)c1cc(-c2ccc(OCc3cncs3)cc2)c(C(F)(F)F)[nH]c1=O` [Example 134, 2-oxo-5-(4-(thiazol-5-ylmethoxy)phenyl)-6-(trifluoromethyl)-1,2-dihydropyridine-3-carboxamide] has an IC50 of 25 to 50 µM.
Work on `NC(=O)c1cc(-c2ccc(OCc3nccs3)cc2)c(C(F)(F)F)[nH]c1=O` [Example 143, 2-oxo-5-(4-(thiazol-2-ylmethoxy)phenyl)-6-(trifluoromethyl)-1,2-dihydropyridine-3-carboxamide] yielded an IC50 of 10 to 25 µM.
`NC(=O)c1cc(-c2ccc(OCc3cnc(NCC4CC4)nc3)cc2)c(C(F)(F)F)[nH]c1=O` [Example 161] showed an IC50 of 10 to 25 µM.
`NC(=O)c1cc(-c2ccc(OCc3cnc4c(c3)ncn4CC3CC3)cc2)c(C(F)(F)F)[nH]c1=O` [Example 175, 5-(4-((3-(cyclopropylmethyl)-3H-imidazo[4,5-b]pyridin-6-yl)methoxy)phenyl)-2-oxo-6-(trifluoromethyl)-1,2-dihydropyridine-3-carboxamide] was tested, and the IC50 was 25 to 50 µM.
For `NC(=O)c1cc(-c2ccc(OCc3ccc(Cl)nc3)cc2)c(C(F)(F)F)[nH]c1=O` [Example 176, 5-(4-((6-chloropyridin-3-yl)methoxy)phenyl)-2-oxo-6-(trifluoromethyl)-1,2-dihydropyridine-3-carboxamide], the IC50 was 25 to 50 µM.
Molecule `NC(=O)c1cc(-c2ccc(COc3cccnc3)cc2)c(C(F)(F)F)[nH]c1=O` [Example 177, 2-oxo-5-(4-((pyridin-3-yloxy)methyl)phenyl)-6-(trifluoromethyl)-1,2-dihydropyridine-3-carboxamide] has an IC50 of 25 to 50 µM.
